pIC50: −log10 of the molar value.
Columns and labels:
[1] = molecular target: T1, catalytic domain (JH1, amino acids 826-1132) of human JAK2 (Homo sapiens, UniProt O60674); test: JAK2 LanthaScreen JH1 Binding Assay; details: 50 nM fluorescent JAK2-JH1 tracer, 2 hours at 25° C.; read-out: JH1 BIND (EX. A)
T1 construct: catalytic domain (JH1, amino acids 826-1132) of human JAK2; FLAG (N); purchased Carna Biosciences 08-445-20N; host or cells: baculovirus expression system
Description: Example A. JAK2 LanthaScreen JH1 Binding Assay
JAK2 JH1 binding assay utilizes catalytic domain (JH1, amino acids 826-1132) of human JAK2 expressed as N-terminal FLAG-tagged, biotinylated protein in a baculovirus expression system (Carna Biosciences, Product #08-445-20N). The assay was conducted in black 384-well polystyrene plates in a final reaction volume of 20 μL. JAK2 JH1 (1.5 nM) was incubated with compounds (100 nL serially diluted in DMSO) in the presence of 50 nM fluorescent JAK2-JH1 tracer and 0.5 nM Streptavidin-Tb cryptate (Cisbio Part #610SATLB) in assay buffer (50 mM Tris, pH=7.5, 10 mM MgCl2, 0.01% Brij-35, 0.1% BSA, 1 mM EGTA, 5% Glycerol and 5 mM DTT). Non-specific binding was accessed in the presence of 2 mM ATP. After incubation for 2 hours at 25° C., LanthaScreen signals were read on a PHERAstar FS plate reader (BMG LABTECH). Data was analyzed with IDBS Xlfit and GraphPad Prism 5.0 software using a four parameter dose response curve to determine IC50 for each compound.

[2] = molecular target: T2, pseudo-kinase domain (JH2, amino-acids 536-812) of human Wild Type JAK2 (Homo sapiens, UniProt O60674, F794H/W659A/W777A); test: JAK2 LanthaScreen JH2-WT Binding Assay; details: 50 nM Fluorescent JAK2-JH2 Tracer, 1 hour at 25° C.; read-out: JH2 BIND WT (EX. B)
T2 construct: JH2, amino-acids 536-812 with 3 surface mutations W659A, W777A, F794H; His (C); purchased BPS Bioscience 79463; host or cells: baculovirus expression system
T2 sequence (O60674 536-812 W659A/W777A/F794H): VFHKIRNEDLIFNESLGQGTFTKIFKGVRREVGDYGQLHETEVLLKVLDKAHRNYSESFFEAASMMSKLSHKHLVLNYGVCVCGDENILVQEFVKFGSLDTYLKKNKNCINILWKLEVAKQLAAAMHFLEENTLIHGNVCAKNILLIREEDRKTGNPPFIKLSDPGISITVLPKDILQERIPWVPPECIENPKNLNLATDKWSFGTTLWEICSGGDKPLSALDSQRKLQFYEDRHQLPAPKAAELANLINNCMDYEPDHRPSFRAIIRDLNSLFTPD
Description: Example B. JAK2 LanthaScreen JH2-WT Binding Assay
(§1) JAK2 JH2-WT binding assay utilizes pseudo-kinase domain (JH2, amino-acids 536-812 with 3 surface mutations W659A, W777A, F794H) of human Wild Type JAK2 expressed as C-terminal His-Avi-tagged, biotinylated protein in a baculovirus expression system (BPS Bioscience, Catalog #79463). The assay was conducted in black 384-well polystyrene plates in a final reaction volume of 20 μL. JAK2 JH2-WT (0.145 nM) was incubated with compounds (100 nL serially diluted in DMSO) in the presence of 50 nM Fluorescent JAK2-JH2 Tracer (MedChem Express Catalog #HY-102055) and 0.25 nM Streptavidin-Tb cryptate (Cisbio Part #610SATLB) in assay buffer (50 mM Tris, pH=7.5, 10 mM MgCl2, 0.01% Brij-35, 0.1% BSA, 1 mM EGTA, 5% Glycerol and 5 mM DTT). Non-specific binding was accessed in the presence of 2 mM ATP. After incubation for 1 hour at 25° C., LanthaScreen signals were read on a PHERAstar FS plate reader (BMG LABTECH). Data was analyzed with IDBS Xlfit and GraphPad Prism 5.0 software using a four parameter dose response curve to determine IC50 for each compound.

[3] = molecular target: T3, pseudo-kinase domain (JH2, amino-acids 536-812) of human V617F mutant JAK2 (Homo sapiens, UniProt O60674, F794H/V617F/W659A/W777A); test: JAK2 LanthaScreen JH2-V617F Binding Assay; details: 50 nM Fluorescent JAK2-JH2 Tracer, 1 hour at 25° C.; read-out: JH2 BIND V617F (Ex. C)
T3 construct: JH2, amino-acids 536-812 with 3 surface mutations W659A, W777A, F794H; His (C); purchased BPS Bioscience 79498; host or cells: baculovirus expression system
T3 sequence (O60674 536-812 V617F/W659A/W777A/F794H): as the sequence (O60674 536-812 W659A/W777A/F794H) above, with V82F counted along it
Description: Example C. JAK2 LanthaScreen JH2-V617F Binding Assay
as §1, with “JH2-V617F” for “JH2-WT”, “V617F mutant” for “Wild Type”, “#79498).” for “#79463).”, “JH2-V617F (0.26” for “JH2-WT (0.145”

[4] = molecular target: T4, catalytic domain (JH1, amino acids 808-1132) of human JAK2 (Homo sapiens, UniProt O60674); test: JAK2 HTRF Enzyme Activity Assay; format: biochemical; details: ATP (30 μM or 1 mM; not stated which for the table), 60 minutes at 25° C.; read-out: JAK2 HTRF (Ex. D)
T4 construct: catalytic domain (JH1, amino acids 808-1132) of human JAK2; His (N); purchased BPS Bioscience 40450; host or cells: baculovirus expression system
T4 sequence (O60674 808-1132): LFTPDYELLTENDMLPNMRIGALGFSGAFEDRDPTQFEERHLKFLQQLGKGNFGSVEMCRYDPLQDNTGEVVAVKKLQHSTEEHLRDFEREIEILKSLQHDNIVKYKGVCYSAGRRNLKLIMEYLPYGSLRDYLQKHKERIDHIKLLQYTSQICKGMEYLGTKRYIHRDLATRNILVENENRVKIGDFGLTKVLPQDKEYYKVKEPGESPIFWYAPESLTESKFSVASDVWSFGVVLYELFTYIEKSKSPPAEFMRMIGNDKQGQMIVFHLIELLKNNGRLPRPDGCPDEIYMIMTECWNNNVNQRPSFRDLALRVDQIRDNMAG
Description: Example D. JAK2 HTRF Enzyme Activity Assay
JAK2 enzyme activity assays utilize catalytic domain (JH1, amino acids 808-1132) of human JAK2 expressed as N-terminal His-tagged protein in a baculovirus expression system (BPS Bioscience, Catalog #40450). The assays was conducted in black 384-well polystyrene plates in a final reaction volume of 20 μL. JAK2 (0.015 nM) was incubated with compounds (100 nL serially diluted in DMSO) in the presence of ATP (30 μM or 1 mM) and 500 nM Biotin-labeled EQEDEPEGDYFEWLE (SEQ ID NO.: 1) peptide (BioSource International, custom synthesis) in assay buffer (50 mM Tris, pH=7.5, 10 mM MgCl2, 0.01% Brij-35, 0.1% BSA, 1 mM EGTA, 5% Glycerol and 5 mM DTT) for 60 minutes at 25° C. The reactions were stopped by the addition of 10 μL of detection buffer (50 mM Tris, pH 7.8, 0.5 mg/mL BSA, 150 mM NaCl), supplemented with EDTA, LANCE Eu-W1024 anti-phosphotyrosine (PY20), (PerkinElmer, Catalog #AD0067) and Streptavidin SureLight APC (PerkinElmer Catalog #CR130-100), for a final concentration of 15 mM, 1.5 nM and 75 nM, respectively. HTRF signals were read after 30 minutes incubation at room temperature on a PHERAstar FS plate reader (BMG LABTECH). Data was analyzed with TDBS Xlfit and GraphPad Prism 5.0 software using a four parameter dose response curve to determine IC50 for each compound.

T1 sequence (O60674 826-1132): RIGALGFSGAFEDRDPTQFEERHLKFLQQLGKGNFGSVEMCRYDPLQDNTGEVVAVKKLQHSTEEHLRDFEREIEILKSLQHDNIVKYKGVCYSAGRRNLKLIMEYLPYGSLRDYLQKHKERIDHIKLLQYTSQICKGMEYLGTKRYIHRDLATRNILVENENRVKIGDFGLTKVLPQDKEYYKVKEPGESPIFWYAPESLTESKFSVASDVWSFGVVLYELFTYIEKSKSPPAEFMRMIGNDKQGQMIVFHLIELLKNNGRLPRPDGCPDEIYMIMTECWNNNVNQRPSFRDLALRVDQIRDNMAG

Row | SMILES | pIC50 [1] | pIC50 [2] | pIC50 [3] | pIC50 [4]
1 | [2H]C([2H])([2H])n1c(=O)n([C@@H]2CC[C@@H](NC(=O)OC)C2)c2cc(Nc3cc(CO)c4cccc(C(F)(F)F)c4n3)ncc21 [Example 1, Methyl ((1R,3R)-3-(6-((4-(hydroxymethyl)-8-(trifluoromethyl)quinolin-2-yl)amino)-3-(methyl-d3)-2-oxo-2,3-dihydro-1H-imidazo[4,5-c]pyridin-1-yl)cyclopentyl)carbamate] | < 6.00 | ≥ 8.00 | ≥ 8.00 | < 6.00
2 | [2H]C([2H])([2H])n1c(=O)n([C@@H]2CC[C@@H](NC(=O)OC)C2)c2cc(Nc3cc(C(C)O)c4cccc(C(F)(F)F)c4n3)ncc21 (stereo partly drawn) [Example 2, Methyl ((1R,3R)-3-(6-((4-(1-hydroxyethyl)-8-(trifluoromethyl)quinolin-2-yl)amino)-3-(methyl-d3)-2-oxo-2,3-dihydro-1H-imidazo[4,5-c]pyridin-1-yl)cyclopentyl)carbamate] | < 6.00 | ≥ 8.00 | ≥ 8.00 | < 6.00
3 | [2H]C([2H])([2H])n1c(=O)n([C@@H]2CC[C@]([2H])(NC(=O)OC)C2)c2cc(Nc3cc(C(C)(C)O)c4cccc(C(F)(F)F)c4n3)ncc21 [Example 11, Methyl ((1S,3R)-3-(6-((4-(2-hydroxypropan-2-yl)-8-(trifluoromethyl)quinolin-2-yl)amino)-3-(methyl-d3)-2-oxo-2,3-dihydro-1H-imidazo[4,5-c]pyridin-1-yl)cyclopentyl-1-d)carbamate] |  |  | ≥ 8.00 | < 6.00
4 | [2H]C([2H])([2H])n1c(=O)n([C@@H]2CC[C@@]([2H])(NC(=O)OC)C2)c2cc(Nc3cc(C(C)(C)O)c4cccc(C(F)(F)F)c4n3)ncc21 [Example 12, Methyl ((1R,3R)-3-(6-((4-(2-hydroxypropan-2-yl)-8-(trifluoromethyl)quinolin-2-yl)amino)-3-(methyl-d3)-2-oxo-2,3-dihydro-1H-imidazo[4,5-c]pyridin-1-yl)cyclopentyl-1-d)carbamate] |  |  | ≥ 8.00 | < 6.00
5 | [2H]C([2H])([2H])n1c(=O)n([C@@H]2CC[C@](C)(NC(=O)OC)C2)c2cc(Nc3cc(C(C)(C)O)c4cccc(C(F)(F)F)c4n3)ncc21 [Example 13, Methyl ((1S,3R)-3-(6-((4-(2-hydroxypropan-2-yl)-8-(trifluoromethyl)quinolin-2-yl)amino)-3-(methyl-d3)-2-oxo-2,3-dihydro-1H-imidazo[4,5-c]pyridin-1-yl)-1-methylcyclopentyl)carbamate] |  |  | ≥ 8.00 | < 6.00
6 | [2H]C([2H])([2H])n1c(=O)n([C@@H]2CC[C@](C)(NC(=O)OCCOC)C2)c2cc(Nc3cc(C(C)(C)O)c4cccc(C(F)(F)F)c4n3)ncc21 [Example 14, 2-Methoxyethyl ((1S,3R)-3-(6-((4-(2-hydroxypropan-2-yl)-8-(trifluoromethyl)quinolin-2-yl)amino)-3-(methyl-d3)-2-oxo-2,3-dihydro-1H-imidazo[4,5-c]pyridin-1-yl)-1-methylcyclopentyl)carbamate] |  |  | ≥ 8.00 | < 6.00
7 | [2H]C([2H])([2H])n1c(=O)n(C23CCC(NC(=O)OC)(C2)C3)c2cc(Nc3cc(C(C)(C)O)c4cccc(C(F)(F)F)c4n3)ncc21 [Example 32, Methyl (4-(6-((4-(2-hydroxypropan-2-yl)-8-(trifluoromethyl)quinolin-2-yl)amino)-3-(methyl-d3)-2-oxo-2,3-dihydro-1H-imidazo[4,5-c]pyridin-1-yl)bicyclo[2.1.1]hexan-1-yl)carbamate] |  |  | ≥ 8.00 | < 6.00
8 | [2H]C([2H])([2H])n1c(=O)n(C23CC(NC(=O)OC)(C2)C3)c2cc(Nc3ccc4cccc(C(F)(F)F)c4n3)ncc21 [Example 33, Methyl (3-(3-(methyl-d3)-2-oxo-6-((8-(trifluoromethyl)quinolin-2-yl)amino)-2,3-dihydro-1H-imidazo[4,5-c]pyridin-1-yl)bicyclo[1.1.1]pentan-1-yl)carbamate] |  |  | 7.00 to 8.00 | < 6.00
9 | [2H]C([2H])([2H])n1c(=O)n([C@@H]2CC[C@@H](NC(=O)OC)C2)c2cc(Nc3cc(C(C)(C)O)c4cccc(C(C)(C)C#N)c4n3)ncc21 [Example 34, Methyl ((1R,3R)-3-(6-((8-(2-cyanopropan-2-yl)-4-(2-hydroxypropan-2-yl)quinolin-2-yl)amino)-3-(methyl-d3)-2-oxo-2,3-dihydro-1H-imidazo[4,5-c]pyridin-1-yl)cyclopentyl)carbamate] |  |  | 7.00 to 8.00 | < 6.00
10 | [2H]C([2H])([2H])n1c(=O)n([C@@H]2CC[C@@]([2H])(NC(=O)OC)C2)c2cc(Nc3cc(C)c4nc(C)c(I)n4n3)ncc21 [Example 46, Methyl ((1R,3R)-3-(6-((3-iodo-2,8-dimethylimidazo[1,2-b]pyridazin-6-yl)amino)-3-(methyl-d3)-2-oxo-2,3-dihydro-1H-imidazo[4,5-c]pyridin-1-yl)cyclopentyl-1-d)carbamate] |  |  | ≥ 8.00 | < 6.00

From patent US20250304582A1, “Bicyclic Ureas As Kinase Inhibitors” (Incyte Corporation, priority 2024, published 2025)
